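48-hour exposure; five concentrations; linearly interpolated endpoints. Abbreviation: GI50, concentration required for 50% inhibition of growth.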 Activity calls are given as the source filed them. No stated cut-off is given here; in the data, active = GI50 up to about 1.1 µM and inactive = higher.
Legend:
Test in all cases: inhibition of tumour cell growth, NCI panel, 48 h
[1] = tested on: A498
[2] = tested on: A549
[3] = tested on: CAKI-1
[4] = tested on: HCT-15
[5] = tested on: HL-60
[6] = tested on: LOX IMVI
[7] = tested on: NCI-H460
[8] = tested on: NCI-H522
[9] = tested on: RPMI-8226
[10] = tested on: SK-MEL-2
[11] = tested on: SK-MEL-5
[12] = tested on: SK-OV-3
[13] = tested on: SR
[14] = tested on: TK-10
[15] = tested on: DU-145
[16] = tested on: MDA-MB-435
[17] = tested on: PC-3
[18] = tested on: SNB-19
[19] = tested on: T47D
[20] = tested on: BT-549

`CCOC(=O)C(C)(NC(=O)c1ccc(NCc2ccc3nc(NC(=O)c4ccccc4)nc(NC(=O)c4ccccc4)c3c2)cc1)C(=O)OCC` was tested, and the GI50 [1] was 9.35 µM (inactive), the GI50 [2] was 12.2 µM (inactive) and the GI50 [3] was 8.02 µM (inactive). For the same compound, the GI50 [4] was 24.4 µM, the GI50 [5] was > 100 µM (inactive) and the GI50 [6] was 13.6 µM (inactive). For the same compound, the GI50 [7] was 14.5 µM (inactive), the GI50 [8] was 13.4 µM (inactive) and the GI50 [9] was 18.3 µM (inactive). For the same compound, the GI50 [10] was 14.1 µM (inactive), the GI50 [11] was 7.28 µM (inactive) and the GI50 [12] was 12.5 µM (inactive). For the same compound, the GI50 [13] was 34.9 µM (inactive) and the GI50 [14] was 19.9 µM (inactive).
`CC1=C2C(=O)c3ccccc3C(=O)[C@H]2C[C@@H](N2CCCC2=O)O1` was tested, and the GI50 [1] was 54.8 µM (inactive), the GI50 [2] was 43.1 µM (inactive) and the GI50 [3] was 77.3 µM (inactive). For the same compound, the GI50 [15] was 26.9 µM (inactive), the GI50 [4] was 49.2 µM and the GI50 [5] was 40.8 µM (inactive). The GI50 [6] was 20.2 µM (inactive), the GI50 [16] was 18.5 µM (inactive) and the GI50 [7] was 61.1 µM (inactive). The GI50 [8] was 79.8 µM (inactive), the GI50 [17] was > 100 µM (inactive) and the GI50 [9] was 21.7 µM (inactive). The GI50 [10] was > 100 µM (inactive), the GI50 [11] was 17.1 µM (inactive) and the GI50 [12] was > 100 µM (inactive). For the same compound, the GI50 [18] was > 100 µM (inactive), the GI50 [13] was 32.2 µM (inactive) and the GI50 [19] was 22.8 µM (inactive). For the same compound, the GI50 [14] was 70.3 µM (inactive).
In the case of `O=C(O)CCC(=O)c1ccc2c(c1)C(C(=O)O)CC2` (configuration not stated), the GI50 [1] was > 100 µM (inactive), the GI50 [2] was 0.0902 µM (active) and the GI50 [15] was > 100 µM (inactive). For the same compound, the GI50 [4] was > 100 µM, the GI50 [5] was > 100 µM (inactive) and the GI50 [6] was > 100 µM (inactive). The GI50 [16] was > 100 µM (inactive), the GI50 [7] was > 100 µM (inactive) and the GI50 [8] was > 100 µM (inactive). For the same compound, the GI50 [17] was > 100 µM (inactive), the GI50 [9] was > 100 µM (inactive) and the GI50 [10] was > 100 µM (inactive). The GI50 [11] was > 100 µM (inactive), the GI50 [12] was > 100 µM (inactive) and the GI50 [18] was > 100 µM (inactive). For the same compound, the GI50 [13] was > 100 µM (inactive), the GI50 [19] was > 100 µM (inactive) and the GI50 [14] was > 100 µM (inactive).
In the case of `CC(=O)NNc1nc(C)c(C(=O)NNC(=O)C(=O)Nc2c([N+](=O)[O-])ccc(C)c2C)s1`, the GI50 [1] was 31.6 µM (inactive), the GI50 [2] was > 100 µM (inactive) and the GI50 [3] was > 100 µM (inactive). The GI50 [4] was > 100 µM, the GI50 [5] was > 100 µM (inactive) and the GI50 [6] was 78.3 µM (inactive). For the same compound, the GI50 [7] was > 100 µM (inactive), the GI50 [8] was 50.9 µM (inactive) and the GI50 [9] was > 100 µM (inactive). The GI50 [10] was > 100 µM (inactive), the GI50 [11] was > 100 µM (inactive) and the GI50 [18] was > 100 µM (inactive). For the same compound, the GI50 [13] was 92.3 µM (inactive) and the GI50 [14] was > 100 µM (inactive).
`O=C(c1ccc2ccccc2c1)C1(I)S(=O)(=O)OCCOS1(=O)=O` was tested, and the GI50 [2] was > 100 µM (inactive), the GI50 [20] was > 100 µM (inactive) and the GI50 [3] was > 100 µM (inactive). The GI50 [15] was > 100 µM (inactive), the GI50 [4] was > 100 µM and the GI50 [5] was > 100 µM (inactive). For the same compound, the GI50 [16] was > 100 µM (inactive), the GI50 [7] was > 100 µM (inactive) and the GI50 [17] was > 100 µM (inactive). For the same compound, the GI50 [9] was > 100 µM (inactive), the GI50 [10] was > 100 µM (inactive) and the GI50 [11] was > 100 µM (inactive). For the same compound, the GI50 [18] was > 100 µM (inactive), the GI50 [13] was > 100 µM (inactive) and the GI50 [14] was > 100 µM (inactive).
For `COC(=O)C(=O)C(C(=O)OC)C(=O)C(=O)Nc1c(C)cccc1C` (configuration not stated), the GI50 [1] was > 100 µM (inactive), the GI50 [2] was > 100 µM (inactive) and the GI50 [3] was > 100 µM (inactive). For the same compound, the GI50 [4] was > 100 µM, the GI50 [5] was > 100 µM (inactive) and the GI50 [6] was > 100 µM (inactive). For the same compound, the GI50 [7] was > 100 µM (inactive), the GI50 [8] was 97.5 µM (inactive) and the GI50 [9] was > 100 µM (inactive). The GI50 [10] was > 100 µM (inactive), the GI50 [11] was > 100 µM (inactive) and the GI50 [12] was > 100 µM (inactive). For the same compound, the GI50 [18] was > 100 µM (inactive), the GI50 [13] was > 100 µM (inactive) and the GI50 [14] was > 100 µM (inactive).
`O=c1cc2oc3ccc4ccccc4c3cc-2c(=O)[nH]1` was tested, and the GI50 [1] was 16.1 µM (inactive), the GI50 [2] was 21 µM (inactive) and the GI50 [20] was 1.34 µM (inactive). The GI50 [3] was 15.3 µM (inactive), the GI50 [15] was 13.6 µM (inactive) and the GI50 [4] was 7.55 µM. The GI50 [5] was 1.51 µM (inactive), the GI50 [6] was 7.71 µM (inactive) and the GI50 [16] was 11 µM (inactive). The GI50 [7] was 22.9 µM (inactive), the GI50 [8] was 9.12 µM (inactive) and the GI50 [17] was 10.6 µM (inactive). For the same compound, the GI50 [9] was 2.96 µM (inactive), the GI50 [10] was 17.3 µM (inactive) and the GI50 [11] was 15.5 µM (inactive). For the same compound, the GI50 [12] was 20.3 µM (inactive), the GI50 [18] was 14 µM (inactive) and the GI50 [13] was 2.62 µM (inactive).
For `COc1cccc(SSc2cccc(OC)c2C(=O)O)c1C(=O)O`, the GI50 [1] was > 100 µM (inactive), the GI50 [2] was > 100 µM (inactive) and the GI50 [3] was > 100 µM (inactive). For the same compound, the GI50 [4] was > 100 µM, the GI50 [5] was > 100 µM (inactive) and the GI50 [6] was > 100 µM (inactive). The GI50 [7] was > 100 µM (inactive), the GI50 [8] was > 100 µM (inactive) and the GI50 [9] was > 100 µM (inactive). The GI50 [10] was > 100 µM (inactive), the GI50 [11] was > 100 µM (inactive) and the GI50 [12] was > 100 µM (inactive). The GI50 [13] was > 100 µM (inactive) and the GI50 [14] was > 100 µM (inactive).
In the case of `NCCCC(N)(C(=O)O)C(F)F` (configuration not stated) [EFLORNITHINE], the GI50 [1] was > 5000 µM (inactive), the GI50 [2] was > 5000 µM (inactive) and the GI50 [3] was 1570 µM (inactive). For the same compound, the GI50 [4] was 769 µM, the GI50 [5] was > 3910 µM (inactive) and the GI50 [6] was 678 µM (inactive). The GI50 [7] was 933 µM (inactive), the GI50 [8] was > 5000 µM (inactive) and the GI50 [9] was > 5000 µM (inactive). The GI50 [10] was > 5000 µM (inactive), the GI50 [11] was > 5000 µM (inactive) and the GI50 [12] was > 5000 µM (inactive). The GI50 [18] was > 5000 µM (inactive), the GI50 [13] was > 100 µM (inactive) and the GI50 [14] was > 100 µM (inactive).

Reference: ChEMBL document CHEMBL1201862, “PubChem BioAssay data set” (2004)
